In the test the test system is PAO1 biofilm. As to the kind of experiment: In vitro MBEC antibiofilm assay. To be noted: 5-15 μg/mL colistin. The class given is cell-based, P. aeruginosa. How it is done:
The pegs on lid of the MBEC Assay® were submerged into the bacterial suspension, with column 12 containing sterile LB broth as a negative control. The plate was incubated at 37° C. on a rotating gyrator for 24 h to form biofilm on the pegs. After 24 h, the peg lid was removed and transferred into another 96-well microtiter plate containing sterile water for 30 seconds before being transferred into a treatment plate. The peg lid in the treatment plate was incubated for 24 h at 37° C. on the rotating gyrator. In the first study, the effect of concentration variation of TOB in MO-LCNPs was determined. […] The respective controls included unloaded formulations MO-LCNP and […] at equivalent concentrations and 0.9% NaCl. […] In the second study, the difference in effect of MO- and […] compared to liposomes containing TOB was determined. […] The final concentration of MO and PHY was 0.25 mg/mL. Liposomes were prepared as described above. In the third study, TOB, AMI and GEN as unformulated solutions and loaded in MO-LCNPs were compared as treatments against PAO1 biofilms in the MBEC Assay®. The concentration of each antibiotic was 6 μg/mL. […] In all four different studies, the treatments were incubated with the PAO1 biofilm grown on the MBEC Assay® on a rotating plate at 37° C. After 24 h incubation, the peg lid was transferred to a fresh plate containing sterilized water to inhibit treatments. […]

For Colistin sulfate salt, the “anti-biofilm effect compared to saline control” value was “no anti-biofilm or antimicrobial effect”.
